Molecules are shown by their SMILES.

The target of this assay is T1, Recombinant human GR (Homo sapiens, UniProt P04150).
T1 construct: purchased Invitrogen P2816
T1 sequence (P04150 1-777): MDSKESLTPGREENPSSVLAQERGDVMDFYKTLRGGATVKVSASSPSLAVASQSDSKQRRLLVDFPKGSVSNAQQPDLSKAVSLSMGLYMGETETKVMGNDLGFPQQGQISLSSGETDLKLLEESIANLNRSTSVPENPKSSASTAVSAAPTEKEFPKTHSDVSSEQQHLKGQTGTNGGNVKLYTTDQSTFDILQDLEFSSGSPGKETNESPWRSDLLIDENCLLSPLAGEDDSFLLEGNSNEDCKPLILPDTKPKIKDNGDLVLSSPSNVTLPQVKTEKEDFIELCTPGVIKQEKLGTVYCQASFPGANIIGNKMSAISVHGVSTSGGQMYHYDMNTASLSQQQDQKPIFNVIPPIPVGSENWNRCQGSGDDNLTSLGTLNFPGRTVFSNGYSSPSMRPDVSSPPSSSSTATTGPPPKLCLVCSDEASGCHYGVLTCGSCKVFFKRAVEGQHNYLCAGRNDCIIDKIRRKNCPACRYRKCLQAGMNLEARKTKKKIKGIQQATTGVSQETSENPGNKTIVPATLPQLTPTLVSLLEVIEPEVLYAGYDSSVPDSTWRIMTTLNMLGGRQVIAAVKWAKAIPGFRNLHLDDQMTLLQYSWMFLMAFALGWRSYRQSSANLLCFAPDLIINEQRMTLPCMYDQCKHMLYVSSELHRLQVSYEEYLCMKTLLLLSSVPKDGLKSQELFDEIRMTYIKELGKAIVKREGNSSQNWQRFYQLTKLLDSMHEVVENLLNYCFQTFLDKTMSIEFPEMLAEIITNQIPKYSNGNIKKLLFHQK
The experiment in a line: GR competitor assay by fluorescence polarization (GR binding ratio). As to conditions: positive control 2 mM dexamethasone, a GR binding ratio of 100% or more is indicated by 100%. The procedure:
1. Evaluation Test for Binding Activity to Glucocorticoid Receptor (hereinafter referred to as “GR”)
In order to evaluate a binding activity to GR, a receptor competitor assay was carried out by a fluorescence polarization method. In the assay, a GR competitor assay kit (manufactured by Invitrogen, cat No. P2816) was used, and a procedure was carried out according to the protocol attached to the kit. Hereinafter, the specific method will be described.
GR screening buffer: A buffer containing 10 mM potassium phosphate (pH 7.4), 20 mM sodium molybdate (Na2MoO4), 0.1 mM ethylene diamine tetraacetic acid (EDTA), 5 mM dithiothreitol (DTT), 0.1 mM stabilizing peptide and 2% dimethylsulfoxide was prepared.
4×GS1 solution: Fluormone™ GS1, which is a fluorescent glucocorticoid ligand, was diluted with GR screening buffer, whereby a 4 nM solution was prepared.
4×GR solution: Recombinant human GR was diluted with GR screening buffer, whereby a 16 nM solution was prepared.
After a test compound was dissolved in dimethylsulfoxide, the resulting solution was diluted with GR screening buffer, whereby a 20 μM test compound solution was prepared.
1) The test compound solution was added in an amount of 25 μL or 10 μL into each well of a 96-well or 384-well plate, and then, 4×GS1 solution and 4×GR solution were added in an amount of 12.5 μL or 5 μL into each well, respectively.
2) The plate was incubated in a dark place at room temperature for 2 to 4 hours.
3) By using a multimode plate reader, Analyst™ HT (manufactured by LJL Biosystems), fluorescence polarization of each well was measured. As the blank, a well containing GR screening buffer in place of the test compound and 4×GS1 solution was used.
4) The same procedure as that in the above 1) to 3) was carried out except that GR screening buffer was used in place of the test compound solution, and the obtained result was taken as the negative control.
5) The same procedure as that in the above 1) to 3) was carried out except that 2 mM dexamethasone was used in place of the test compound solution, and the obtained result was taken as the positive control.
A GR binding ratio (%) was calculated from the following equation.
GR binding ratio (%)=100×[1−(fluorescence polarization of test compound solution−fluorescence polarization of positive control solution)/(fluorescence polarization of negative control solution−fluorescence polarization of positive control solution)]

Regarding `CCOc1cc(F)ccc1-c1ccc2c(c1COC(=O)c1ccc(C)s1)C(C)=CC(C)(C)N2` [Compound 12-58, 6-(2-Ethoxy-4-fluorophenyl)-5-[(5-methylthiophen-2-yl)carbonyloxymethyl]-2,2,4-trimethyl-1,2-dihydroquinoline], the “GR Binding ratio (%)” value was at least 100%. Take `COc1ccc(O)cc1-c1ccc2c(c1COc1cc(F)ccc1C)C(C)=CC(C)(C)N2` [Compound 5-4, 5-(5-Fluoro-2-methylphenoxymethyl)-6-(5-hydroxy-2-methoxyphenyl)-2,2,4-trimethyl-1,2-dihydroquinoline]: the “GR Binding ratio (%)” value came out at 95%. For `COc1ccc(C)cc1-c1ccc2c(c1COC(=O)c1ccc(C)s1)C(C)=CC(C)(C)N2` [Compound 12-67, 6-(2-Methoxy-5-methylphenyl)-5-(5-methylthiophen-2-yl-carbonyloxymethyl)-2,2,4-trimethyl-1,2-dihydroquinoline] the value was at least 100%; for `COc1ccc(C(=O)OCc2c(-c3ccc(F)cc3OC)ccc3c2C(C)=CC(C)(C)N3)cc1` [Compound 1-19, 6-(4-Fluoro-2-methoxyphenyl)-5-(4-methoxybenzoyloxymethyl)-2,2,4-trimethyl-1,2-dihydroquinoline], at least 100%; for `COC(=O)Cc1ccccc1OCc1c(-c2ccc(F)cc2OC)ccc2c1C(C)=CC(C)(C)N2` [Compound 14-1, 6-(4-Fluoro-2-methoxyphenyl)-5-(2-methoxycarbonylmethylphenoxymethyl)-2,2,4-trimethyl-1,2-dihydroquinoline], at least 100%. For the molecule `COc1cc(F)c(F)cc1-c1ccc2c(c1COc1ccccc1C)C(C)=CC(C)(C)N2` [Compound 3-45, 6-(4,5-Difluoro-2-methoxyphenyl)-5-(2-methylphenoxymethyl)-2,2,4-trimethyl-1,2-dihydroquinoline], the “GR Binding ratio (%)” value came to 98%. For `COc1ccc(F)cc1OCc1c(-c2ccc(F)cc2OC)ccc2c1C(C)=CC(C)(C)N2` [Compound 3-67, 5-(5-Fluoro-2-methoxyphenoxymethyl)-6-(4-fluoro-2-methoxyphenyl)-2,2,4-trimethyl-1,2-dihydroquinoline], the “GR Binding ratio (%)” value is recorded as at least 100%. For `COc1cc(F)ccc1-c1ccc2c(c1COc1cc(C)ccc1C)C(C)=CC(C)(C)N2` [Compound 3-58, 5-(2,5-Dimethylphenoxymethyl)-6-(4-fluoro-2-methoxyphenyl)-2,2,4-trimethyl-1,2-dihydroquinoline] the value was at least 100%. In the case of `C=CCc1ccccc1OCc1c(-c2cc(F)ccc2OC)ccc2c1C(C)=CC(C)(C)N2` [Compound 14-45, 5-(2-Allylphenoxymethyl)-6-(5-fluoro-2-methoxyphenyl)-2,2,4-trimethyl-1,2-dihydroquinoline], the “GR Binding ratio (%)” value is at least 100%. Regarding `COc1ccc(C(F)(F)F)cc1-c1ccc2c(c1CNc1cc(F)ccc1C)C(C)=CC(C)(C)N2` [Compound 6-79, 5-(5-Fluoro-2-methylphenylaminomethyl)-6-(2-methoxy-5-trifluoromethylphenyl)-2,2,4-trimethyl-1,2-dihydroquinoline], the “GR Binding ratio (%)” value is listed as at least 100%. As to `COc1cc(F)ccc1-c1ccc2c(c1COC(=O)c1ccccc1C)C(C)=CC(C)(C)N2` [Compound 1-46, 6-(4-Fluoro-2-methoxyphenyl)-5-(2-methylbenzoyloxymethyl)-2,2,4-trimethyl-1,2-dihydroquinoline], the “GR Binding ratio (%)” value was at least 100%. Regarding `C=CCOc1ccc(-c2ccc3c(c2COc2cc(F)ccc2C)C(C)=CC(C)(C)N3)c(OC)c1` [Compound 15-7, 6-(4-Allyloxy-2-methoxyphenyl)-5-(5-fluoro-2-methylphenoxymethyl)-2,2,4-trimethyl-1,2-dihydroquinoline], the “GR Binding ratio (%)” value was at least 100%. Turning to `COc1cc(F)ccc1-c1ccc2c(c1CNc1ccccc1CCO)C(C)=CC(C)(C)N2` [Compound 6-77, 6-(4-Fluoro-2-methoxyphenyl)-5-[2-(2-hydroxyethyl)phenylaminomethyl)-2,2,4-trimethyl-1,2-dihydroquinoline], the “GR Binding ratio (%)” value is listed as at least 100%.
